Source: patent US20220062299A1, “USE OF GLUCOCORTICOID STEROIDS IN PREVENTING AND TREATING CONDITIONS OF MUSCLE WASTING, AGING AND METABOLIC DISORDER” (NORTHWESTERN UNIVERSITY, priority 2018, published 2022)

Key:
aging Wildtype (WT) mice = experiment: Aging wildtype mice, 40 weeks weekly prednisone; assay type: in vivo, mouse
Procedure: Dosing of metabolic and endocrine biomarkers. Glycogen was quantitated using the Glycogen Assay Kit (#ab65620; Abcam, Cambridge, Mass.) from approximately 25 mg frozen-pulverized whole tissue, following manufacturer's instructions and internal standards for calculating μg/mg values. For measurement of whole-tissue ATP/NAD^+ levels, approximately 25 mg frozen-pulverized tissue was extracted in 10% perchloric acid and neutralized in 0.75 M K2CO3, as previously described (Ramsey et al., 2009). NAD+ and ATP were measured by high-pressure liquid chromatography (HPLC) with Shimadzu LC-20A pump (Shimadzu Scientific Instr Inc, Addison, Ill.) and UV-VIS detector, using a Supelco LC-18-T column (15 cm×[…]; #58970-U; Millipore-Sigma, St Louis, Mo.). […] ATP and NAD^+ eluted as sharp peaks at 3 and 14 minutes, respectively, and were normalized to tissue weight of frozen liver tissue for calculating pmol/mg values. Corticosterone was measured in mouse serum and cortisol was measured in human serum using dedicated ELISA kits (#ADI-900-097, Enzo Life Science, Farmingdale, N.Y.; #K7430-100, BioVision, Milpitas, Calif.) according to manufacturer's instructions and internal standards to calculate ng/ml values. Insulin levels were quantitated in mouse and human serum with species-specific ELISA kits (#10-1247-01 (mouse-specific); #10-1113-01 (human-specific); Mercodia, Uppsala, Sweden), following manufacturer's instructions and internal standards to calculate ng/ml values. Free fatty acids were quantitated using Enzychrom Free Fatty Acid Assay kit (#EFFA-100; BioAssay Systems, Hayward, Calif.), following kit's instructions and standards to calculate μM (serum) and nmol/mg (tissue) values. For ketone body dosing, beta-hydroxybutyrate was quantitated using a dedicated colorimetric assay kit (#700190; Cayman Chemical, Ann Arbor, Mich.), following manufacturer's instructions and standards to calculate μM (serum) and nmol/mg (tissue) values. […] Colorimetric reactions were quantitated using a Synergy HTX multi-mode plate reader (BioTek®, Winooski, Vt.) and averaging four reads/sample at appropriate wavelengths. […]
Histology. […] Myofiber/adipocyte CSA quantitation was conducted on 400 myofibers/adipocytes per tissue per mouse. […] Area quantitation was performed by means of ImageJ (Schneider et al., 2012). Sample processing, imaging and CSA quantitation were conducted blinded to treatment groups.
Muscle function, whole-body plethysmography, echocardiography. Forelimb grip strength was monitored using a meter (Cat #1027SM; Columbus Instruments, Columbus, Ohio) blinded to treatment groups. […]

[1] = test system: GRE-KRE genomic sites (Mef2C, Bckdha, Pck1, Nmnat3); experiment: Luciferase reporter experiments in electroporated mdx myofibers; assay type: in vivo, mouse; settings: prednisone pulse 1 mg/kg combined with Klf15 overexpression
From the text: Luciferase experiments in live myofibers. Luciferase plasmids containing regulatory fragments were obtained cloning genomic sequences in the pGL4.23 backbone (#E8411; Promega, Madison, Wis.) using the KpnI-XhoI sites upstream of the minimal promoter site. Fragments were cloned conserving the genomic orientation with regards to transcriptional orientation, adding KpnI and XhoI tails to the appropriate extremities via Phusion PCR. Wildtype fragments […] were cloned from wildtype C57Bl/6J genomic DNA, while mutated fragments (Δ sites) were amplified from ad-hoc synthetized DNA oligonucleotides, using genomic sequences from the C57Bl/6J genomic background (see Table 5 for a complete list of sequences). Flexor digitorum brevis (FDB) fibers were transfected by in vivo electroporation. Methods were described previously in (DiFranco et al., 2009) with modifications described in (Demonbreun and McNally, 2015). Briefly, the hindlimb footpad was injected with 10 μl hyaluronidase (8 units) (Cat #H4272, Sigma, St. Louis, Mo.). […] Ex vivo luciferase assay was performed on whole, electroporated FDB muscles. […] Luminescence was recorded at the Synergy HTX multi-mode 96-well plate reader (BioTek®, Winooski, Vt.). […] Results are expressed as fold change to average vehicle. All luciferase quantitation assays were conducted blinded to treatment groups. […]

[2] = aging WT mice, weekly prednisone, 40 weeks

C[C@]12C=CC(=O)C=C1CC[C@@H]1[C@@H]2C(=O)C[C@@]2(C)[C@H]1CC[C@]2(O)C(=O)CO [prednisone, Prednisone]
grip strength, tetanic and specific force, and muscle mass (myofiber CSA) (aging Wildtype (WT) mice; aged WT mice, weekly prednisone, 40 weeks): improved
levels of ATP, NAD+ and glycogen in muscle and heart tissues (aging Wildtype (WT) mice; aging WT mice, weekly prednisone 1 mg/kg i.p., 40 weeks from the age of 6 weeks): increased
parameters of cardiac contractile function (echocardiography) (aging Wildtype (WT) mice; [2]): improved
parameters of respiratory function (whole-body plethysmography) (aging Wildtype (WT) mice; [2]): improved
Fluc reporter activity of GRE-KRE constructs [1]: additive effect
